Data reported in ChEMBL document CHEMBL4376829, “Discovery and biological evaluation of vinylsulfonamide derivatives as highly potent, covalent TEAD autopalmitoylation inhibitors” (Eur J Med Chem, 2019).
Active and inactive are the calls of the source. No cut-off for these calls is given here.

Tests used:
[1] = biological target: Mitogen-activated protein kinase kinase kinase 10 (Homo sapiens) (UniProt Q02779); assay: Inhibition of recombinant human MLK2 (1 to 449 residues) at 10 uM using myelin basic protein as substrate measured after 40 mins in presence of [gamma33P]ATP by scintillation counting method relative to control
[2] = biological target: Dual specificity mitogen-activated protein kinase kinase 1 (Homo sapiens) (UniProt Q02750); assay: Inhibition of recombinant full-length human MEK1 at 10 uM using unactive MAPK2 as substrate measured after 40 mins in presence of [gamma33P]ATP by scintillation counting method relative to control
[3] = biological target: Serine/threonine-protein kinase Nek2 (Homo sapiens) (UniProt P51955); assay: Inhibition of recombinant human full length NEK2 at 10 uM using myelin basic protein as substrate incubated for 40 mins in presence of [gamma-33P]-ATP by scintillation counting method relative to control
[4] = test system: Phosphorylase b kinase gamma catalytic chain, liver/testis isoform (Homo sapiens), P15735 [F290L]; assay: Inhibition of recombinant human PhKgamma2 F290L mutant (1 to 301 residues) at 10 uM using KKLNRTLSFAEPG as substrate measured after 40 mins in presence of [gamma33P]ATP by scintillation counting method relative to control
[5] = biological target: Serine/threonine-protein kinase pim-2 (Homo sapiens) (UniProt Q9P1W9); assay: Inhibition of recombinant human PIM2 (2 to end residues) at 10 uM using RSRHSSYPAGT as substrate measured after 40 mins in presence of [gamma33P]ATP by scintillation counting method relative to control
[6] = biological target: Protein arginine N-methyltransferase 6 (Homo sapiens) (UniProt Q96LA8); assay: Inhibition of human PRMT6 at 10 uM relative to control
[7] = biological target: Histone acetyltransferase KAT2A (Homo sapiens) (UniProt Q92830); assay: Inhibition of human GCN5 at 10 uM after 1 hr by radioisotope-based assay relative to control
[8] = biological target: N-lysine methyltransferase SMYD2 (Homo sapiens) (UniProt Q9NRG4); assay: Inhibition of human SMYD2 at 10 uM relative to control
[9] = biological target: T1, Transcriptional enhancer factor TEF-3 (Homo sapiens, UniProt Q15561); assay: Inhibition of N-terminal His6 tagged human TEAD4-YBD (217 to 434 residues) expressed in Escherichia coli C43 (DE3) cells assessed as reduction in autopalmitoylation at 200 nM preincubated for 2 hrs followed by palmitoyl alkyne-coenzyme A addition and measured after 30 mins immunoblot analysis relative to control
[10] = biological target: T1, Transcriptional enhancer factor TEF-3; assay: Inhibition of N-terminal His6-tagged human TEAD4-YBD (217 to 434 residues) expressed in Escherichia coli C43 (DE3) cells at 50 to 1000 nM preincubated for 2 hrs followed by palmitoyl alkyne-coenzyme A addition and measured after 30 mins in presence of BSA by immunoblot analysis
[11] = biological target: CDK12/Cyclin K (Homo sapiens) (UniProt O75909+Q9NYV4); assay: Inhibition of full-length recombinant human CDK12/cyclinK at 10 uM using RSRSRSRSRSRSRSR as substrate after 40 mins by in presence of [gamma33P]ATP by scintillation counting method relative to control; type: protein-complex assay
Homo sapiens [12] = organism: Homo sapiens; assay: Inhibition of recombinant human Plk4 S34T mutant (1 to 273 residues) at 10 uM using casein as substrate measured after 120 mins in presence of [gamma33P]ATP by scintillation counting method relative to control
[13] = biological target: Serine/threonine-protein kinase 24 (Homo sapiens) (UniProt Q9Y6E0); assay: Inhibition of recombinant human MST3 (1 to 304 residues) at 10 uM using ERMRPRKRQGSVRRRV as substrate measured after 40 mins in presence of [gamma33P]ATP by scintillation counting method relative to control
Homo sapiens [14] = organism: Homo sapiens; assay: Inhibition of recombinant full-length human PI3K p120gamma R459Q mutant at 10 uM using phosphatidylinositol-4, 5-bisphosphate as substrate measured after 40 mins by fluorescence assay relative to control
[15] = biological target: Mitogen-activated protein kinase kinase kinase 9 (Homo sapiens) (UniProt P80192); assay: Inhibition of recombinant human MLK1 (134 to 414 residues) at 10 uM using casein as substrate measured after 40 mins in presence of [gamma33P]ATP by scintillation counting method relative to control
[16] = biological target: Ribosomal protein S6 kinase alpha-3 (Homo sapiens) (UniProt P51812); assay: Inhibition of full length recombinant human Rsk2 (2 to end residues) at 10 uM using KKKNRTLSVA as substrate after 40 mins in presence of [gamma33P]ATP by scintillation counting method relative to control
[17] = test system: Ribosomal protein S6 kinase beta-1 (Homo sapiens), P23443 [T412E]; assay: Inhibition of recombinant human p70S6K T412E mutant (1 to 421 residues) at 10 uM using KKRNRTLTV as substrate measured after 40 mins in presence of [gamma33P]ATP by scintillation counting method relative to control
[18] = biological target: Cyclin-dependent kinase 14/Cyclin-Y (Homo sapiens) (UniProt O94921+Q8ND76); assay: Inhibition of human CDK14/cyclinY at 10 uM by radiometric assay relative to control; type: protein-complex assay
[19] = biological target: Tyrosine-protein kinase Fer (Homo sapiens) (UniProt P16591); assay: Inhibition of recombinant human FER (541 to end residues) at 10 uM using KKKSPGEYVNIEFG as substrate measured after 40 mins in presence of [gamma33P]ATP by scintillation counting method relative to control
[20] = biological target: Ribosomal protein S6 kinase alpha-4 (Homo sapiens) (UniProt O75676); assay: Inhibition of recombinant human MSK2 (2 to end residues) at 10 uM using GRPRTSSFAEGKK as substrate measured after 40 mins in presence of [gamma33P]ATP by scintillation counting method relative to control
[21] = biological target: Serine/threonine-protein kinase B-raf (Homo sapiens) (UniProt P15056); assay: Inhibition of recombinant human BRAF (416 to end residues) at 10 uM using myelin basic protein as substrate after 40 mins in presence of [gamma33P]ATP by scintillation counting method relative to control
[22] = CoA reactivity in PBS assessed as CoA adduct formation at 1 mM after 8 hrs by UPLC-MS analysis
[23] = biological target: Mitogen-activated protein kinase kinase kinase 5 (Homo sapiens) (UniProt Q99683); assay: Inhibition of recombinant human ASK1 (649 to 946 residues) at 10 uM using myelin basic protein as substrate measured after 40 mins in presence of [gamma33P]ATP by scintillation counting method relative to control
[24] = biological target: Tyrosine-protein kinase Fgr (Homo sapiens) (UniProt P09769); assay: Inhibition of recombinant human FGR (2 to end residues) at 10 uM using poly(Glu, Tyr) 4:1 as substrate after 40 mins in presence of [gamma33P]ATP by scintillation counting method relative to control
[25] = biological target: Serine/threonine-protein kinase 4 (Homo sapiens) (UniProt Q13043); assay: Inhibition of recombinant full-length human MST1 at 10 uM using KKSRGDYMTMQIG as substrate measured after 40 mins in presence of [gamma33P]ATP by scintillation counting method relative to control

T1 sequence (Q15561 whole entry, the tested form may be a part): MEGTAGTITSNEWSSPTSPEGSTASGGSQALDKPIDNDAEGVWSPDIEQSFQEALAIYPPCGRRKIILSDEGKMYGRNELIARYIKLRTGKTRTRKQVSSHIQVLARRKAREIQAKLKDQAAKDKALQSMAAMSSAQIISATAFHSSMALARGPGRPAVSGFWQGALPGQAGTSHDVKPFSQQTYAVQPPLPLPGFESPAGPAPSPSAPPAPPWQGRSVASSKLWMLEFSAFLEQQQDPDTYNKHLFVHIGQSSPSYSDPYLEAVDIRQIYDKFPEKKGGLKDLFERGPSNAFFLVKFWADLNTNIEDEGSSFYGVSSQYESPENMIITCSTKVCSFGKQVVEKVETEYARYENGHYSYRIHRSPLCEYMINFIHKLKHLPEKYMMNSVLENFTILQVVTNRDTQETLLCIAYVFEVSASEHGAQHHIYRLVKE
Tyrosine-protein kinase Fgr (Homo sapiens), sequence (P09769 2-529 limits assumed): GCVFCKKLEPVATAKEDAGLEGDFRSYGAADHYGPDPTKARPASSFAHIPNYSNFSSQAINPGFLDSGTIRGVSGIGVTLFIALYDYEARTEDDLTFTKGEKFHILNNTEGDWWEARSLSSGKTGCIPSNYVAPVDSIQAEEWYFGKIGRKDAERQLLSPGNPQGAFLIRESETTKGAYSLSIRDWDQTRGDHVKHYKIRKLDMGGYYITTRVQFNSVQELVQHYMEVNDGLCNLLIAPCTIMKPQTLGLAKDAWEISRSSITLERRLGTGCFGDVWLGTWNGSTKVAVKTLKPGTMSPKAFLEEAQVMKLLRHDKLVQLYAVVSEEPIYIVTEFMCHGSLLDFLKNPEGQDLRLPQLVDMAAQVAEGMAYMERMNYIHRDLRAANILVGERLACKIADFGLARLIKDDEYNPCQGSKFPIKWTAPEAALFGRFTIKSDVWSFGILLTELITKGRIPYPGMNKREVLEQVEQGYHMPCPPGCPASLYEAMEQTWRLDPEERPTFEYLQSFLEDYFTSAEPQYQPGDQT
Histone acetyltransferase KAT2A (Homo sapiens), sequence (Q92830 2-837 limits assumed): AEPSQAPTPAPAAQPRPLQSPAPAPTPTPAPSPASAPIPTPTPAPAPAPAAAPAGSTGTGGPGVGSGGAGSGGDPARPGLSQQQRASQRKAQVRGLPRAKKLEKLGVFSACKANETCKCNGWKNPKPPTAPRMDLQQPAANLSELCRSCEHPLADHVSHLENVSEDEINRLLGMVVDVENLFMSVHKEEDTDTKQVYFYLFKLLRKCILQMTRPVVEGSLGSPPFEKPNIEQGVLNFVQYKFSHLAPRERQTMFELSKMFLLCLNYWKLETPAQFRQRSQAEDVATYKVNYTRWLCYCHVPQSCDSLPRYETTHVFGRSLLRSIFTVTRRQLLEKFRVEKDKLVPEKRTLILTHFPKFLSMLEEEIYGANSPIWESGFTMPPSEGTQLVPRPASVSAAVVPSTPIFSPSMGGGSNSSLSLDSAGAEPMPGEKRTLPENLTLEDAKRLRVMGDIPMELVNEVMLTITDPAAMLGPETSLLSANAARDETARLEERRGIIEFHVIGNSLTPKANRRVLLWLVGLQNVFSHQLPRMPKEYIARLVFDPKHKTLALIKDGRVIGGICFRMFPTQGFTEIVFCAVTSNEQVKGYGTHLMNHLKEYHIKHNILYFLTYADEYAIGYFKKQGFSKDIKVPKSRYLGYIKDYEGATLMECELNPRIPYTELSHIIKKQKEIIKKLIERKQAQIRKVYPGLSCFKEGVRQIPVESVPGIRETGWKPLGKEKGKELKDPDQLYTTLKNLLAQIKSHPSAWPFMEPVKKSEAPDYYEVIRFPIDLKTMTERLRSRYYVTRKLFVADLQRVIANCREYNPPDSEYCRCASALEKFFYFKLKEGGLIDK
Ribosomal protein S6 kinase alpha-4 (Homo sapiens), sequence (O75676 whole entry, looked up): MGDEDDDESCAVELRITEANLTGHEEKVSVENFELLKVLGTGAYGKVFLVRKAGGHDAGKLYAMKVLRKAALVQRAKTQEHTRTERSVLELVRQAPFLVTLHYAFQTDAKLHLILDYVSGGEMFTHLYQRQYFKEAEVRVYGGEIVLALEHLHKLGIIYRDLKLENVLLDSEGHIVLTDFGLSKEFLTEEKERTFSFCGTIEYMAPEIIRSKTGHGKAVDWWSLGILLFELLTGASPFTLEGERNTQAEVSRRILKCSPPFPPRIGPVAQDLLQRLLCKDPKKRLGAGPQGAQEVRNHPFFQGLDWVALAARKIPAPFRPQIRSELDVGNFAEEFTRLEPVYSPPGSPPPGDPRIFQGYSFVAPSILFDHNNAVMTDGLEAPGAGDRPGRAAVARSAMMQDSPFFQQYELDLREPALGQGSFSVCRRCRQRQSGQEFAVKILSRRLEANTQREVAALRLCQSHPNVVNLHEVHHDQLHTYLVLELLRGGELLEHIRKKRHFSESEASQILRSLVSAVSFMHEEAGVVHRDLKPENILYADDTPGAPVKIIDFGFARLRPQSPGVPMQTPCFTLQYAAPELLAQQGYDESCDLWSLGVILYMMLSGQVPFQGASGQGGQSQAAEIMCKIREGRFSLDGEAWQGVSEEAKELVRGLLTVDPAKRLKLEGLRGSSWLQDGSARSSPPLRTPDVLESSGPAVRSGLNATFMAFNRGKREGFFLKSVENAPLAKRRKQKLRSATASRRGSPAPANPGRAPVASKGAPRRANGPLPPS
N-lysine methyltransferase SMYD2 (Homo sapiens), sequence (Q9NRG4 whole entry, the tested form may be a part): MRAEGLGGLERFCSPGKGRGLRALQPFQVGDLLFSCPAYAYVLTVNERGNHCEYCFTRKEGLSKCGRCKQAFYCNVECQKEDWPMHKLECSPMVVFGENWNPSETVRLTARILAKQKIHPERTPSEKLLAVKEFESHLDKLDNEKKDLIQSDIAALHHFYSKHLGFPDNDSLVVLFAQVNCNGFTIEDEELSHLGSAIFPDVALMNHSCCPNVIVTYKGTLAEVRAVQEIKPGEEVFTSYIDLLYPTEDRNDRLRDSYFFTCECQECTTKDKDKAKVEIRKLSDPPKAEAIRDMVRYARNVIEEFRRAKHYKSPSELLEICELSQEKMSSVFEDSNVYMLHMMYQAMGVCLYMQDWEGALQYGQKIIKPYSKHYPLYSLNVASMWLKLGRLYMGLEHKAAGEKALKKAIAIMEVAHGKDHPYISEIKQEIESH
Mitogen-activated protein kinase kinase kinase 10 (Homo sapiens), sequence (Q02779 whole entry, looked up, the tested form may be a part): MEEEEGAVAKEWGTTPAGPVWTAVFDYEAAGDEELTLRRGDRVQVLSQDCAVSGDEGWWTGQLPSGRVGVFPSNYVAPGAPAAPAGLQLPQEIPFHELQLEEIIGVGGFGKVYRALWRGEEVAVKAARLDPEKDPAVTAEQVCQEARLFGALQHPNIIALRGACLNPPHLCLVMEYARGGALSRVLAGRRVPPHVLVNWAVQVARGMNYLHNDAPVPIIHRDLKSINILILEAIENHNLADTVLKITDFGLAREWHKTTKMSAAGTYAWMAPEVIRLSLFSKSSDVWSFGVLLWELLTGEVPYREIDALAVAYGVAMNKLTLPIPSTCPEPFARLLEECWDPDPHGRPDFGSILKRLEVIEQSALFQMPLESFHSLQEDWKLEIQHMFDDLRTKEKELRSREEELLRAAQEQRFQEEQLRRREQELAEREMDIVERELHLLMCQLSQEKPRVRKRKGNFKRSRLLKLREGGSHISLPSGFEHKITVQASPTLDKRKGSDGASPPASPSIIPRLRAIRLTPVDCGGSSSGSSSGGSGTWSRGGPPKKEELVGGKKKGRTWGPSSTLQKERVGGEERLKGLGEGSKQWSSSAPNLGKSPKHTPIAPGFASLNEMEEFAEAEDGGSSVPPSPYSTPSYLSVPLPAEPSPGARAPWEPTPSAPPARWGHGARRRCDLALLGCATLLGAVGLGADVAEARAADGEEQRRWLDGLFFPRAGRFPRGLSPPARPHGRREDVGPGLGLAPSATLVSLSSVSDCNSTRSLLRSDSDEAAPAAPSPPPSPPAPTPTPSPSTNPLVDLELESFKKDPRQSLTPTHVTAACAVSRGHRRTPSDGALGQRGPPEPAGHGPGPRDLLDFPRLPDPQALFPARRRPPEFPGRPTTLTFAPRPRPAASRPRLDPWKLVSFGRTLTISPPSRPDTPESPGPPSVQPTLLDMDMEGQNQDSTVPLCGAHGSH
Phosphorylase b kinase gamma catalytic chain, liver/testis isoform (Homo sapiens), P15735 [F290L], sequence (P15735 whole entry F290L, the tested form may be a part, canonical isoform): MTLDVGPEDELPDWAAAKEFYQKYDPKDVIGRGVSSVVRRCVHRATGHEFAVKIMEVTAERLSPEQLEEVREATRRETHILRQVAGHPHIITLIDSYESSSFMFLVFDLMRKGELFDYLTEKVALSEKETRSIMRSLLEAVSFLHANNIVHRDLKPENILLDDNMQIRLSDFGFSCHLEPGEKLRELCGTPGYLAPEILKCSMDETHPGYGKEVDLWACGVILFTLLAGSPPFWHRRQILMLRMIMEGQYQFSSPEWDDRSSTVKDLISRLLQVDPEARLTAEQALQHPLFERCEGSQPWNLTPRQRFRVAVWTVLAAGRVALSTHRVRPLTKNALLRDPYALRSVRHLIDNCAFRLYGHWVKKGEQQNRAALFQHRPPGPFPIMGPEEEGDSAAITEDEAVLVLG
Serine/threonine-protein kinase pim-2 (Homo sapiens), sequence (Q9P1W9 whole entry, looked up): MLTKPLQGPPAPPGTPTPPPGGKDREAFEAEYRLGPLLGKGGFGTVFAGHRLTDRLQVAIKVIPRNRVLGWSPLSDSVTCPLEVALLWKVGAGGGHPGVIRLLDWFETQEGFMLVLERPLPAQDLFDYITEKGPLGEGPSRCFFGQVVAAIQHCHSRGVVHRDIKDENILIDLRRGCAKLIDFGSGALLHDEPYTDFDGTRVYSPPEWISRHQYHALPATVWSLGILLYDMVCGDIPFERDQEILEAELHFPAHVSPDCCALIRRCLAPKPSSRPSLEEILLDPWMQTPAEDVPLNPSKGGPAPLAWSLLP

**Q.** Which results are given for `C=CS(=O)(=O)Nc1ccc(Cc2ccc3ccccc3c2)cc1`?
**A.** inhibition [1]: 2%; inhibition [2]: -3%; inhibition [3]: -5%; inhibition [4]: 6%; inhibition [5]: 13%; inhibition [6]: 7%; inhibition [7]: 2%; inhibition [8]: 3%; inhibition [9]: 72.5%; inhibition [10]: Active; inhibition [11]: 11%; inhibition (Homo sapiens [12]): -2%; inhibition [13]: 3%; inhibition (Homo sapiens [14]): 5%; inhibition [15]: 8%; inhibition [16]: -3%; inhibition [17]: 9%; inhibition [18]: 1%; inhibition [19]: 9%; inhibition [20]: 12%; inhibition [21]: -8%; Activity [22]: inactive; inhibition [23]: 13%; inhibition [24]: 15%; inhibition [25]: 0%
